The data set is described as follows: Pharmacokinetics of 5-MeO-DMT and bufotenine after inhalation. It counts as in vivo, human. To be noted: LLOQ 25 pg/ml. The protocol:
Blood samples were obtained at 1; 2; 4; 7; 10; 15; 20; 30; 45 min and 1; 1.5; 2; 3; 4 hours after administration.
PK parameters were generated by algebraic analysis of the concentration versus time plots for each individual. The analysis was carried out using the software Phoenix WinNonlin 6.3.

One compound from patent US20250241895A1 (GH RESEARCH IRELAND LIMITED, priority 2022, published 2025) can be followed below.

For the compound `CN(C)CCc1c[nH]c2ccc(O)cc12` [bufotenine], the “samples with bufotenine concentration above LLOQ” value is listed as “Only in few samples”. For the setting “from 15 min onwards after 5-MeO-DMT inhalation”, this compound yielded a bufotenine blood concentration of under 25 pg/mL.
